Tested on: HaCaT cells
Experiment: Normalized expression of target genes in HaCaT cells stimulated with TNFα and IFNγ in presence/absence of JAK inhibitors (QuantiGene Plex)
Type: cell-based, human
Experimental: Transformed human keratinocyte (HaCaT) cells were purchased from AddexBio (Catalog #T0020001) and cultured as outlined in Example 5. […] After 48 hours, cell culture media was removed from 24 well plates and replaced with 250 uL of media containing serial diluted drug, then incubated for 15 minutes at 37° C./5% CO2. After drug incubation, 250 uL of combinatory stimulation containing Recombinant Human Interferon gamma (R&D Systems, Catalog #285-IF-100) and Recombinant Human Tumor Necrosis Factor alpha (R&D Systems, Catalog #210-TA-020) was added to plates. The final concentration of Recombinant Human Interferon gamma and Recombinant Human Tumor Necrosis Factor alpha was 25 ng/mL of each cytokine. Cytokine stimulation added to wells containing drug brought the final concentrations for each drug treatment to 25 nM, 50 nM, 100 nM, and 200 nM. Treated plates were mixed by gentle agitation for 30 seconds then incubated for 24 hours at 37° C./5% CO2. At the end of the 24 hour incubation media was immediately removed from each plate.
RNA was isolated from HaCaT cells using the QuantiGene Plex Assay reagents and protocols (Affymetrix, Catalog #QGP-232-M18042302) according to the manufacturer's guidelines. Cells were washed with 1×DPBS then lysed by incubation with provided QuantiGene lysis buffer for 30 minutes at 50-55° C. Cell lysates were incubated for 18-24 hours at 55° C. with capture beads and probe set designed to specifically hybridize to mRNA from targets of interest. Genes included housekeeping genes (e.g., HPRT1 and GAPDH) used for the normalization of the results. After the 18-24 hour incubation signal was amplified utilizing branched DNA methodologies, according to the manufacturer's procedures (Affymetrix, Catalog #QGP-232-M18042302). After hybridization and wash steps assay plate was read on the Luminex 200 and data were expressed as Net Median Fluorescence Intensity. Data was then normalized to the Net Median Fluorescence Intensity of the housekeeping gene HPRT1 (Table 14).

[1] = TNFα+IFNγ 25 ng/mL, Drug Conc 25 nM
[2] = TNFα+IFNγ 25 ng/mL, Drug Conc 50 nM
[3] = TNFα+IFNγ 25 ng/mL, Drug Conc 100 nM
[4] = TNFα+IFNγ 25 ng/mL, Drug Conc 200 nM
[5] = no stimulation, Drug Conc 200 nM

N#CCC1(n2cc(-c3ncnc4[nH]ccc34)cn2)CN(C2CCN(C(=O)c3ccnc(C(F)(F)F)c3F)CC2)C1 [Cpd B, {1-{1-[3-fluoro-2-(trifluoromethyl)isonicotinoyl]piperidin-4-yl}-3[4-(7H-pyrrolo[2,3-d]pyrimidin-4-yl)-1H-pyrazol-1-yl]azetidin-3-yl}acetonitrile]
AREG normalized expression MFI [1]: 737.85 ± 22.1 | CCL17 normalized expression MFI [1]: 3.37 ± 0.54 | CCL18 normalized expression MFI [1]: 2.12 ± 0.32 | FLG normalized expression MFI [1]: 71.57 ± 9.14 | IL6 normalized expression MFI [1]: 130.24 ± 3.84 | IL8 normalized expression MFI [1]: 381.74 ± 10.25 | IL17A normalized expression MFI [1]: 0.88 ± 0.13 | IL22 normalized expression MFI [1]: 1.21 ± 0.24 | IL23A normalized expression MFI [1]: 43.92 ± 1.89 | IL31 normalized expression MFI [1]: 1.33 ± 0.33 | ILIA normalized expression MFI [1]: 1288.02 ± 20 | IYK2 normalized expression MFI [1]: 292.92 ± 7.99 | JAK1 normalized expression MFI [1]: 216.23 ± 6.41 | JAK2 normalized expression MFI [1]: 109.39 ± 2.8 | JAK3 normalized expression MFI [1]: 0.84 ± 0.12 | LOR normalized expression MFI [1]: 43.2 ± 14.11 | S100A7 normalized expression MFI [1]: 5.45 ± 1.02 | S100A12 normalized expression MFI [1]: 1.21 ± 0.16 | SERPINB3 normalized expression MFI [1]: 3.16 ± 0.43 | SERPINB4 normalized expression MFI [1]: 4.23 ± 0.7 | STAT1 normalized expression MFI [1]: 2861.37 ± 204.56 | STAT3 normalized expression MFI [1]: 1466.73 ± 66.75 | STAT4 normalized expression MFI [1]: 6 ± 0.46 | STAT5A normalized expression MFI [1]: 23.69 ± 1.63 | STAT5B normalized expression MFI [1]: 40.74 ± 2.3 | STAT6 normalized expression MFI [1]: 1004.82 ± 23.76 | TNF normalized expression MFI [1]: 28.04 ± 1.24 | VEGFA normalized expression MFI [1]: 553.23 ± 11.38 | AREG normalized expression MFI [2]: 701.57 ± 12.75 | CCL17 normalized expression MFI [2]: 3.06 ± 0.34 | CCL18 normalized expression MFI [2]: 2.2 ± 0.35 | FLG normalized expression MFI [2]: 74.31 ± 8.77 | IL6 normalized expression MFI [2]: 122.69 ± 4.36 | IL8 normalized expression MFI [2]: 376.41 ± 13.16 | IL17A normalized expression MFI [2]: 0.92 ± 0.14 | IL22 normalized expression MFI [2]: 1.15 ± 0.18 | IL23A normalized expression MFI [2]: 45.85 ± 2.3 | IL31 normalized expression MFI [2]: 1.22 ± 0.29 | ILIA normalized expression MFI [2]: 1258.76 ± 23.63 | IYK2 normalized expression MFI [2]: 287.31 ± 11.08 | JAK1 normalized expression MFI [2]: 210.42 ± 10.89 | JAK2 normalized expression MFI [2]: 101 ± 2.26 | JAK3 normalized expression MFI [2]: 0.83 ± 0.15 | LOR normalized expression MFI [2]: 43.96 ± 15.87 | S100A7 normalized expression MFI [2]: 7.08 ± 1.99 | S100A12 normalized expression MFI [2]: 1.04 ± 0.15 | SERPINB3 normalized expression MFI [2]: 2.3 ± 0.34 | SERPINB4 normalized expression MFI [2]: 3.76 ± 0.66 | STAT1 normalized expression MFI [2]: 2855.28 ± 166.89 | STAT3 normalized expression MFI [2]: 1437.28 ± 60.69 | STAT4 normalized expression MFI [2]: 6.22 ± 0.42 | STAT5A normalized expression MFI [2]: 22.32 ± 2.16 | STAT5B normalized expression MFI [2]: 42.9 ± 2.44 | STAT6 normalized expression MFI [2]: 990.05 ± 21.06 | TNF normalized expression MFI [2]: 28.66 ± 2.58 | VEGFA normalized expression MFI [2]: 545.93 ± 9.71 | AREG normalized expression MFI [3]: 731.24 ± 25.4 | CCL17 normalized expression MFI [3]: 2.87 ± 0.33 | CCL18 normalized expression MFI [3]: 2.01 ± 0.44 | FLG normalized expression MFI [3]: 74.99 ± 8.16 | IL6 normalized expression MFI [3]: 111.07 ± 4.74 | IL8 normalized expression MFI [3]: 387.33 ± 19.5 | IL17A normalized expression MFI [3]: 0.85 ± 0.15 | IL22 normalized expression MFI [3]: 1 ± 0.17 | IL23A normalized expression MFI [3]: 53.05 ± 3.22 | IL31 normalized expression MFI [3]: 1.04 ± 0.31 | ILIA normalized expression MFI [3]: 1162.35 ± 23.34 | IYK2 normalized expression MFI [3]: 284.15 ± 9.62 | JAK1 normalized expression MFI [3]: 205.03 ± 11.49 | JAK2 normalized expression MFI [3]: 94.5 ± 2.65 | JAK3 normalized expression MFI [3]: 0.92 ± 0.13 | LOR normalized expression MFI [3]: 31.4 ± 10.44 | S100A7 normalized expression MFI [3]: 3.83 ± 1.02 | S100A12 normalized expression MFI [3]: 1 ± 0.17 | SERPINB3 normalized expression MFI [3]: 2.2 ± 0.35 | SERPINB4 normalized expression MFI [3]: 2.87 ± 0.48 | STAT1 normalized expression MFI [3]: 2783.68 ± 179.19 | STAT3 normalized expression MFI [3]: 1373.34 ± 55.51 | STAT4 normalized expression MFI [3]: 6.21 ± 0.48 | STAT5A normalized expression MFI [3]: 20.87 ± 2.1 | STAT5B normalized expression MFI [3]: 40.75 ± 2.41 | STAT6 normalized expression MFI [3]: 987.64 ± 15.75 | TNF normalized expression MFI [3]: 29.5 ± 2.82 | VEGFA normalized expression MFI [3]: 524.82 ± 13.65 | AREG normalized expression MFI [4]: 730.41 ± 24.58 | CCL17 normalized expression MFI [4]: 3.13 ± 0.48 | CCL18 normalized expression MFI [4]: 1.68 ± 0.32 | FLG normalized expression MFI [4]: 87.37 ± 10.99 | IL6 normalized expression MFI [4]: 93.03 ± 3.25 | IL8 normalized expression MFI [4]: 377.69 ± 20.45 | IL17A normalized expression MFI [4]: 0.91 ± 0.17 | IL22 normalized expression MFI [4]: 1.01 ± 0.19 | IL23A normalized expression MFI [4]: 59.53 ± 3.83 | IL31 normalized expression MFI [4]: 1.14 ± 0.32 | ILIA normalized expression MFI [4]: 1126.94 ± 26.22 | IYK2 normalized expression MFI [4]: 277.52 ± 8.67 | JAK1 normalized expression MFI [4]: 195.97 ± 10.45 | JAK2 normalized expression MFI [4]: 89.16 ± 3.43 | JAK3 normalized expression MFI [4]: 0.79 ± 0.15 | LOR normalized expression MFI [4]: 38.46 ± 14.1 | S100A7 normalized expression MFI [4]: 5.73 ± 1.59 | S100A12 normalized expression MFI [4]: 1.14 ± 0.16 | SERPINB3 normalized expression MFI [4]: 2.21 ± 0.44 | SERPINB4 normalized expression MFI [4]: 3.19 ± 0.7 | STAT1 normalized expression MFI [4]: 2850.04 ± 177.51 | STAT3 normalized expression MFI [4]: 1400.77 ± 58.44 | STAT4 normalized expression MFI [4]: 6.27 ± 0.56 | STAT5A normalized expression MFI [4]: 19.2 ± 1.94 | STAT5B normalized expression MFI [4]: 41 ± 3.46 | STAT6 normalized expression MFI [4]: 985.17 ± 29.31 | TNF normalized expression MFI [4]: 28.31 ± 2.97 | VEGFA normalized expression MFI [4]: 516.11 ± 14.7 | AREG normalized expression MFI [5]: 260.61 ± 14.67 | CCL17 normalized expression MFI [5]: 1.56 ± 0.38 | CCL18 normalized expression MFI [5]: 1.49 ± 0.37 | FLG normalized expression MFI [5]: 256.93 ± 36.45 | IL6 normalized expression MFI [5]: 4.7 ± 0.32 | IL8 normalized expression MFI [5]: 61.71 ± 4.86 | IL17A normalized expression MFI [5]: 0.46 ± 0.1 | IL22 normalized expression MFI [5]: 0.61 ± 0.13 | IL23A normalized expression MFI [5]: 11.41 ± 1.43 | IL31 normalized expression MFI [5]: 0.72 ± 0.18 | ILIA normalized expression MFI [5]: 92.67 ± 5.54 | IYK2 normalized expression MFI [5]: 217.28 ± 14.28 | JAK1 normalized expression MFI [5]: 177.97 ± 14.91 | JAK2 normalized expression MFI [5]: 25.21 ± 1.12 | JAK3 normalized expression MFI [5]: 0.68 ± 0.17 | LOR normalized expression MFI [5]: 23.78 ± 7.16 | S100A7 normalized expression MFI [5]: 4.94 ± 1.59 | S100A12 normalized expression MFI [5]: 0.8 ± 0.13 | SERPINB3 normalized expression MFI [5]: 2.25 ± 0.49 | SERPINB4 normalized expression MFI [5]: 3.39 ± 0.89 | STAT1 normalized expression MFI [5]: 529.16 ± 21.86 | STAT3 normalized expression MFI [5]: 732.19 ± 23.03 | STAT4 normalized expression MFI [5]: 4.28 ± 0.61 | STAT5A normalized expression MFI [5]: 1.75 ± 0.44 | STAT5B normalized expression MFI [5]: 58.85 ± 6.21 | STAT6 normalized expression MFI [5]: 740.11 ± 34.98 | TNF normalized expression MFI [5]: 2.58 ± 0.57 | VEGFA normalized expression MFI [5]: 211.13 ± 12.18

— patent publication US12498382B2, “Biomarkers for vitiligo” (INCYTE CORPORATION, priority 2019, dated 2025)
